According to paper PMC9848351, “Discovery of new pyridine-quinoline hybrids as competitive and non-competitive PIM-1 kinase inhibitors with apoptosis induction and caspase 3/7 activation capabilities” (Journal of Enzyme Inhibition and Medicinal Chemistry, 2023):

Experiments:
[1] = tested on: Colon cancer cells (Caco-2); assay: MTT anticancer activity, Caco-2; format: cell-based, human; settings: for IC50: Homo sapiens, Caco-2, 72 h, MTT, mean ± SEM; for Caco-2 SI: selectivity index, Wi-38 versus Caco-2
Description: (§1) Anticancer effect of the above-mentioned compounds was evaluated using four human cancer cell lines. Colon cancer cells (Caco-2), myeloid leukaemia cell line (NFS-60), liver cancer cell line (HepG-2) and prostate cancer cell line (PC-3) using MTT method was used for assaying cell viability[26] (Supplementary Page S55).
(§2) All final compounds were evaluated against four human cancer cell lines namely; liver cancer (HepG2) (ATCC® HB-8065™), colon cancer (Caco-2) (ATCC® HTB-37™), leukaemia cancer (NFS-60) (ATCC® CRL-1838™), and prostate cancer (PC-3) (ATCC® CRL-1435™) using doxorubicin (Dox) as the reference drug being widely used in tumour management utilising microculture MTT assay, declared by Mosmann[26] (Table 1 in Supplementary Material, Figures 5–8).
(§3) Cytotoxicity of the tested compounds was evaluated using normal human lung fibroblast Wi-38 cell line compared to currently used anticancer drug (doxorubicin).
(§4) Firstly, Wi-38 cell line was subcultured in DMEM medium-contained 10% fetal bovine serum (FBS), then, seeded as 5x10^3 cells per well in 96-well cell culture plate and incubated at 37 °C in 5% CO 2 incubator. Serial concentrations of these compounds and doxorubicin (Dox) were incubat ed with Wi-38 cells for 72 h after 24 h for cell attachment. MTT method was used for assaying cell viability 25. Twenty microliters of 5 mg/ml MTT (Sigma, USA) was added to each well and the plate was incubated at 37 °C for 3 h. Then MTT solution was removed, 100 µl DMSO was used and the absorbance of each well was measured with a microplate reader ( BMG LabTech, Germany) at 570 nm. The effective concentration (IC 50) and safe dose (EC100) values of the tested compounds that cause 50% and 100% cell viability were estimated by the Graphpad Instat software.
(§5) Determination of the anticancer activity
(§6) Anticancer effect of the above-mentioned compounds was evaluated using four human cancer cell lines. Colon cancer cells (Caco-2) were maintained in DMEM (Lonza, USA) containing 10% FBS while myeloid leukemia cell line (NFS-60), liver cancer cell line (HepG-2) and prostate cancer cell line (PC-3) were cultured in RPMI-1640 (Lonza, USA) supplemented with 10% FBS. All cancer cells (5x10^3 cells/well) were seeded in sterile 96-well plates. After 24h, serial concentrations of the tested compounds and Dox were incubated with four cancer cell lines for 72 h at 37 °C in 5% CO2 incubator. MTT method was done as described above. The Graphpad Instat software was used for calculating the half maximal inhibitory concentration (IC50) values. Furthermore, phase contrast inverted microscope with a digital camera (Olympus, Japan) was used for investigating […]
(§7) safest anticancer compounds. […]

[2] = tested on: liver cancer cell line (HepG-2); assay: MTT anticancer activity, HepG-2; format: cell-based, human; settings: Homo sapiens, HepG2; HepG-2, 72 h, MTT; mean ± SEM
Description: as §1
as §2, with “5–8). […]” for “5–8).”
(§8) MTT method was used for assaying cell viability 25. Twenty microliters of 5 mg/ml MTT (Sigma, USA) was added to each well and the plate was incubated at 37 °C for 3 h. Then MTT solution was removed, 100 µl DMSO was used and the absorbance of each well was measured with a microplate reader ( BMG LabTech, Germany) at 570 nm. The effective concentration (IC 50) and safe dose (EC100) values of the tested compounds that cause 50% and 100% cell viability were estimated by the Graphpad Instat software.
as §5, §6, §7

[3] = tested on: prostate cancer cell line (PC-3); assay: MTT anticancer activity, PC-3; format: cell-based, human; settings: Homo sapiens, 72 h, PC-3, 72 h, mean ± SEM
Description: as §1
as §2, with “5–8). […]” for “5–8).”
as §8, §5, §6, §7

[4] = tested on: normal human lung fibroblast Wi-38 cell line; assay: MTT cytotoxicity on normal cells; format: cell-based; settings: Wi-38, 72 h, MTT, mean ± SEM; for EC50: Homo sapiens, 50% cell viability; for Wi-38 EC100: safe dose, 100% cell viability
Description: Cytotoxicity of the tested compounds was evaluated using normal human lung fibroblast Wi-38 cell line compared to currently used anticancer drug (doxorubicin) using MTT method was used for assaying cell viability[26] (Supplementary Page S55).
Cytotoxicity test is one of the biological evaluations and screening tests that use human normal and cancer cells in-vitro to observe the effect of the studied compounds on their growth using MTT-based cytotoxicity. Microculture MTT method[26] was used to determine cytotoxic activity of the newly synthesised compounds against normal human lung fibroblast (Wi-38) using doxorubicin (Dox) as standard anticancer drug. The highest IC50 and EC100 values illustrate that the compounds were safe on the proliferation of normal human cells. […]. page 47:
as §3
as §4, with “software. […]” for “software.”

[5] = tested on: myeloid leukaemia cell line (NFS-60); assay: MTT anticancer activity, NFS-60; format: cell-based; settings: NFS-60, 72 h, MTT; mean ± SEM
Description: as §1
as §2, with “5–8). […]” for “5–8).”
as §8, §5, §6, §7

Compound	IC50 [1] [nM]	IC50 [2] [nM]	melting point [°C]	IC50 [3] [nM]	IC50 [5] [nM]	Caco-2 SI [1]	EC50 [4] [nM]	Wi-38 EC100 [4] [µM]
N#Cc1c(-c2cc3cc(Cl)ccc3nc2N2CCCCC2)cc(-c2cccc(O)c2)[nH]c1=O [5e, 4-(6-Chloro-2-(piperidin-1-yl)quinoline-3-yl)-6-(3-hydroxyphenyl)-2-oxo-1,2-dihydropyridine-3-carbonitrile]	51.7 ± 5	36.1 ± 1	> 300	40.9 ± 1	62.7 ± 27	0.534	27.6 ± 1	0.0234 ± 0.001
COc1ccc2[nH]c(=O)c(-c3cc(-c4cccc(O)c4)nc(N)c3C#N)cc2c1 [15c, 2-Amino-6-(3-hydroxyphenyl)-4-(6-methoxy-2-oxo-1,2-dihydroquinolin-3-yl)pyridine-3-carbonitrile]	141 ± 21	107 ± 11	259 to 260	143 ± 13	122 ± 1	0.858	121 ± 2	0.101 ± 0.005
COc1ccc2nc(N3CCOCC3)c(-c3cc(-c4cccc(OC(C)=O)c4)[nH]c(=O)c3C#N)cc2c1 [7c, 3-(5-Cyano-4-(6-methoxy-2-morpholin-4-yl-quinolin-3-yl)-6-oxo-1,6-dihydropyridin-2-yl)phenyl acetate]	127 ± 14	142.1 ± 1	> 300	101 ± 1	153 ± 34	1.079	137 ± 0.1	0.094 ± 0.005
COc1ccc2nc(N3CCOCC3)c(-c3cc(-c4cccc(O)c4)nc(OCC(=O)Nc4ccc(Cl)cc4)c3C#N)cc2c1 [11h, N-(4-Chlorophenyl)-2-((3-cyano-6-(3-hydroxyphenyl)-4-(6-methoxy-2-morpholin-4-yl-quinolin-3-yl)pyridin-2-yl)oxy)acetamide]	82.9 ± 3	74 ± 2	230 to 232	70.9 ± 0.1	78.1 ± 7	2.002	166 ± 3	0.0182 ± 0.001
N#Cc1c(-c2cc3cc(Cl)ccc3nc2N2CCOCC2)cc(-c2cccc(O)c2)nc1S [6b, 4-(6-Chloro-2-morpholin-4-yl-quinolin-3-yl)-6-(3-hydroxyphenyl)-2-mercaptopyridine-3-carbonitrile]	55.2 ± 3	46.6 ± 1	260 to 261	119 ± 14	204 ± 6	2.500	138 ± 2	0.0493 ± 0.001
N#Cc1c(-c2cc3cc(Cl)ccc3[nH]c2=O)cc(-c2cccc(O)c2)nc1N [15b, 2-Amino-4-(6-chloro-2-oxo-1,2-dihydroquinolin-3-yl)-6-(3-hydroxyphenyl)pyridine-3-carbonitrile]	194 ± 2	299 ± 8	> 300	196 ± 61	323 ± 7	1.361	264 ± 6	0.169 ± 0.009
CC(=O)Oc1cccc(-c2cc(-c3cc4ccccc4nc3N3CCOCC3)c(C#N)c(=O)[nH]2)c1 [7a, 3-(5-Cyano-4-(2-morpholin-4-yl-quinolin-3-yl)-6-oxo-1,6-dihydropyridin-2-yl)phenyl acetate]	79.9 ± 3	49.5 ± 0.1	> 300	140 ± 20	145 ± 2	2.178	174 ± 5	0.102 ± 0.01
COc1ccc(NC(=O)COc2nc(-c3cccc(O)c3)cc(-c3cc4ccccc4nc3N3CCOCC3)c2C#N)cc1 [11c]	100 ± 14	281 ± 7	268 to 270	159 ± 7	110 ± 2	1.010	101 ± 1	0.0483 ± 0.004

More lines, in order of falling IC50 [1], values ahead:

IC50 [1] [nM]	IC50 [2] [nM]	melting point [°C]	IC50 [3] [nM]	IC50 [5] [nM]	Compound	Caco-2 SI [1]	EC50 [4] [nM]	Wi-38 EC100 [4] [µM]
104 ± 4	74 ± 2	240 to 242	127 ± 2	135 ± 2	N#Cc1c(-c2cc3ccccc3nc2N2CCOCC2)cc(-c2cccc(O)c2)nc1S [6a, 6-(3-Hydroxyphenyl)-4-(2-morpholin-4-yl-quinolin-3-yl)-2-mercaptopyridine-3-carbonitrile]	1.740	181 ± 5	0.0785 ± 0.003
73.9 ± 0.1	78.2 ± 2	179 to 180	84.7 ± 3	92.3 ± 0.1	N#Cc1c(-c2cc3ccccc3nc2N2CCOCC2)cc(-c2cccc(O)c2)nc1OCC(=O)O [9a, 2-((3-Cyano-6-(3-hydroxyphenyl)-4-(2-morpholin-4-yl-quinolin-3-yl)pyridin-2-yl)oxy)acetic acid]	2.152	159 ± 4	0.0254 ± 0.002
63 ± 2	71.5 ± 1	279 to 280	130 ± 11	181 ± 7	N#Cc1c(-c2cc3ccccc3nc2N2CCOCC2)cc(-c2cccc(O)c2)nc1OCC(=O)Nc1ccc(Cl)cc1 [11b, N-(4-Chlorophenyl)-2-((3-cyano-6-(3-hydroxyphenyl)-4-(2-morpholin-4-yl-quinolin-3-yl)pyridin-2-yl)oxy)acetamide]	5.349	337 ± 24	0.00232 ± 0.001
55.2 ± 2	45.4	279 to 280	97.3 ± 8	380 ± 10	N#Cc1c(-c2cc3cc(Cl)ccc3nc2N2CCOCC2)cc(-c2cccc(O)c2)nc1OCC(=O)O [9b, 2-((4-(6-Chloro-2-morpholin-4-yl-quinolin-3-yl)-3-cyano-6-(3-hydroxyphenyl)pyridin-2-yl)oxy)acetic acid]	3.098	171 ± 1	0.134 ± 0.01
48.4 ± 5	30.9	> 300	38.8 ± 3	33.7	N#Cc1c(-c2cc3cc(Cl)ccc3[nH]c2=O)cc(-c2cccc(O)c2)[nH]c1=O [13b, 4-(6-Chloro-2-oxo-1,2-dihydroquinolin-3-yl)-6-(3-hydroxyphenyl)-2-oxo-1,2-dihydropyridine-3-carbonitrile]	1.005	48.6 ± 16	0.017 ± 0.002
